The numbers were not newly measured in patent publication US6485708B1, “Products and methods for the remineralization and prevention of demineralization of teeth” (Church & Dwight Co. Inc., priority 1999, dated 2002), which cites them from elsewhere.

SMILES strings stand for the structures.

The conditions of this data set: aqueous solution, pH about 7.0, about 25° C.

For the molecule `O.O.O=P([O-])([O-])O.[Ca+2]` [dicalcium phosphate dihydrate], the calcium cations released result is on record as “about 40 ppm”.
